Laboratory results: patent US12122763B2, “Substituted piperidines for androgen receptor degradation” (UBIX THERAPEUTICS, INC., priority 2020, dated 2024)

Target: T1, Androgen Receptor (AR) protein (Homo sapiens, UniProt P10275, T878A)
T1 construct: endogenous in cells; host or cells: LNCaP
Experiment: Androgen Receptor (AR) protein degradation assay in LNCaP cells, western blotting
Type: cell-based
Settings: 20 h; for inhibition at 0.01 µM: 0.01 μM compound; for inhibition at 0.1 µM: 0.1 μM compound; for inhibition at 1 µM: 1 μM compound
How it was run: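 LNCaP prostate cancer cells were cultured 3 days, then treated with compound for 20 h. Lysates in 1% SDS buffer were normalised by BCA, and 8 μg protein was run on 4–12% Bis-Tris gels. AR was immunoblotted with chemiluminescence, using GAPDH/β-actin as loading controls.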

T1 sequence (P10275 whole entry T878A): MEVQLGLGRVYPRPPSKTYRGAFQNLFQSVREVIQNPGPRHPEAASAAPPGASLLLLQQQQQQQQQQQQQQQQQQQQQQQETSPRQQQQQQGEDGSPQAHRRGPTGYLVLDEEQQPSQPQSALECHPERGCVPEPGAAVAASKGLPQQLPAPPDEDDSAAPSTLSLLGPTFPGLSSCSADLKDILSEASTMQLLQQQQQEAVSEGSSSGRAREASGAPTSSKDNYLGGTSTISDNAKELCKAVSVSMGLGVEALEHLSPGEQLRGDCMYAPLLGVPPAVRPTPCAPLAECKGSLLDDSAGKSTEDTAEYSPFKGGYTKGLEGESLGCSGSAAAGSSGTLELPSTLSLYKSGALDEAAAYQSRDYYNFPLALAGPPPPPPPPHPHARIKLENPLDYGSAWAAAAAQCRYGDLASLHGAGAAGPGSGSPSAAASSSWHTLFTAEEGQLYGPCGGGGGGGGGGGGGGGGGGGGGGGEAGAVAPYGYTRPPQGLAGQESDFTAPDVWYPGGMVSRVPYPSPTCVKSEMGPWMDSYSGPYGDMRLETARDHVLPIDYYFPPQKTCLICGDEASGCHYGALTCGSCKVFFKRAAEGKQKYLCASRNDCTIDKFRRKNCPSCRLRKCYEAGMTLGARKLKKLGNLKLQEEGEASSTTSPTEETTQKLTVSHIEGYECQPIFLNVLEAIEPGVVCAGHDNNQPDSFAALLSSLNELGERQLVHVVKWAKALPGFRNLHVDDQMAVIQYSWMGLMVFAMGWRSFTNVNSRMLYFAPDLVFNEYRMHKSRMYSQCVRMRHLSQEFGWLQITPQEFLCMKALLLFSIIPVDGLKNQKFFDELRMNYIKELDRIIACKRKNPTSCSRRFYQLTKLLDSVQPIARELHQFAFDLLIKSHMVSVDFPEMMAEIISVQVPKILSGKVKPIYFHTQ
T1 sequence (Q96SW2 whole entry partner): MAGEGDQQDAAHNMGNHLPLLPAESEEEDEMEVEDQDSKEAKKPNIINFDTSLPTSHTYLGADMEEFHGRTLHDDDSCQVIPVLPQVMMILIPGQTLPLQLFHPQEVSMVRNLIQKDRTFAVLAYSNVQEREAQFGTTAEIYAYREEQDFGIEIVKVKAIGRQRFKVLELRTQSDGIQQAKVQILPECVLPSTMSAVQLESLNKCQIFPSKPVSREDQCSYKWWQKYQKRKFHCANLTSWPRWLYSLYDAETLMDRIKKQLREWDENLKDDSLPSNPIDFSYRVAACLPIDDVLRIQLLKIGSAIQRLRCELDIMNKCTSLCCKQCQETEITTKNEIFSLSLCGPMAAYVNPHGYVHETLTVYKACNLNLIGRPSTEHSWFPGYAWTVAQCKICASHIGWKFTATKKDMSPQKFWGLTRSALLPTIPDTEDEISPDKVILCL

SMILES | inhibition at 0.01 µM | inhibition at 0.1 µM | inhibition at 1 µM
N#Cc1ccc(N2CCC(C(=O)Nc3ccc(N4CCN(CCOC5CCN(c6ccc7c(c6)C(=O)N(C6CCC(=O)NC6=O)C7=O)CC5)CC4)cn3)CC2)cc1C(F)(F)F (stereo not drawn) [Example 117, 1-(4-cyano-3-(trifluoromethyl)phenyl)-N-(5-(4-(2-((1-(2-(2,6-dioxopiperidin-3-yl)-1,3-dioxoisoindolin-5-yl)piperidin-4-yl)oxy)ethyl)piperazin-1-yl)pyridin-2-yl)piperidine-4-carboxamide] | 35% | 84% | 94%
N#Cc1ccc(N2CCC(C(=O)Nc3ccc(N4CCN(CCOC5CCN(c6ccc7c(c6)C(=O)N(C6CCC(=O)NC6=O)C7=O)CC5)CC4)cn3)CC2)cc1Cl (stereo not drawn) [Example 118, 1-(3-chloro-4-cyanophenyl)-N-(5-(4-(2-((1-(2-(2,6-dioxopiperidin-3-yl)-1,3-dioxoisoindolin-5-yl)piperidin-4-yl)oxy)ethyl)piperazin-1-yl)pyridin-2-yl)piperidine-4-carboxamide] | 34% | 62% | 88%
N#Cc1ccc(N2CCC(C(=O)Nc3ccc(N4CCN(CCC5CCN(c6ccc7c(c6)C(=O)N(C6CCC(=O)NC6=O)C7=O)CC5)CC4)cn3)CC2)cc1C(F)(F)F (stereo not drawn) [Example 119, 1-(4-cyano-3-(trifluoromethyl)phenyl)-N-(5-(4-(2-(1-(2-(2,6-dioxopiperidin-3-yl)-1,3-dioxoisoindolin-5-yl)piperidin-4-yl)ethyl)piperazin-1-yl)pyridin-2-yl)piperidine-4-carboxamide] | 21% | 90% | 26%
N#Cc1ccc(N2CCC(C(=O)Nc3ccc(N4CCN(CCC5CCN(c6ccc7c(c6)C(=O)N(C6CCC(=O)NC6=O)C7=O)CC5)CC4)cn3)CC2)cc1Cl (stereo not drawn) [Example 120, 1-(3-chloro-4-cyanophenyl)-N-(5-(4-(2-(1-(2-(2,6-dioxopiperidin-3-yl)-1,3-dioxoisoindolin-5-yl)piperidin-4-yl)ethyl)piperazin-1-yl)pyridin-2-yl)piperidine-4-carboxamide] | 0% | 88% | 96%
N#Cc1ccc(N2CCC(C(=O)Nc3ccc(N4CC5(CCN(CC6CCN(c7ccc8c(c7)C(=O)N(C7CCC(=O)NC7=O)C8=O)CC6)CC5)C4)cn3)CC2)cc1C(F)(F)F (stereo not drawn) [Example 121, 1-(4-cyano-3-(trifluoromethyl)phenyl)-N-(5-(7-((1-(2-(2,6-dioxopiperidin-3-yl)-1,3-dioxoisoindolin-5-yl)piperidin-4-yl)methyl)-2,7-diazaspiro[3.5]nonan-2-yl)pyridin-2-yl)piperidine-4-carboxamide] | 81% | 98% | 98%
N#Cc1ccc(N2CCC(C(=O)Nc3ccc(N4CC5(CCN(CC6CCN(c7ccc8c(c7)C(=O)N(C7CCC(=O)NC7=O)C8=O)CC6)CC5)C4)cn3)CC2)cc1Cl (stereo not drawn) [Example 122, 1-(3-chloro-4-cyanophenyl)-N-(5-(7-((1-(2-(2,6-dioxopiperidin-3-yl)-1,3-dioxoisoindolin-5-yl)piperidin-4-yl)methyl)-2,7-diazaspiro[3.5]nonan-2-yl)pyridin-2-yl)piperidine-4-carboxamide] | 71% | 76% | 74%
N#Cc1ccc(N2CCC(C(=O)Nc3ccc(N4CC5(CCN(CC6CN(c7ccc8c(c7)C(=O)N(C7CCC(=O)NC7=O)C8=O)C6)CC5)C4)cn3)CC2)cc1C(F)(F)F (stereo not drawn) [Example 123, 1-(4-cyano-3-(trifluoromethyl)phenyl)-N-(5-(7-((1-(2-(2,6-dioxopiperidin-3-yl)-1,3-dioxoisoindolin-5-yl)azetidin-3-yl)methyl)-2,7-diazaspiro[3.5]nonan-2-yl)pyridin-2-yl)piperidine-4-carboxamide] | 55% | 91% | 97%
N#Cc1ccc(N2CCC(C(=O)Nc3ccc(N4CC5(CCN(CC6CN(c7ccc8c(c7)C(=O)N(C7CCC(=O)NC7=O)C8=O)C6)CC5)C4)cn3)CC2)cc1Cl (stereo not drawn) [Example 124, 1-(3-chloro-4-cyanophenyl)-N-(5-(7-((1-(2-(2,6-dioxopiperidin-3-yl)-1,3-dioxoisoindolin-5-yl)azetidin-3-yl)methyl)-2,7-diazaspiro[3.5]nonan-2-yl)pyridin-2-yl)piperidine-4-carboxamide] | 52% | 88% | 96%
N#Cc1ccc(N2CCC(C(=O)Nc3ccc(N4CC5(CCN(C[C@H]6CCN(c7ccc8c(c7)C(=O)N(C7CCC(=O)NC7=O)C8=O)C6)CC5)C4)cn3)CC2)cc1C(F)(F)F (stereo partly drawn) [Example 125, 1-(4-cyano-3-(trifluoromethyl)phenyl)-N-(5-(7-(((3R)-1-(2-(2,6-dioxopiperidin-3-yl)-1,3-dioxoisoindolin-5-yl)pyrrolidin-3-yl)methyl)-2,7-diazaspiro[3.5]nonan-2-yl)pyridin-2-yl)piperidine-4-carboxamide] | 25% | 84% | 92%
N#Cc1ccc(N2CCC(C(=O)Nc3ccc(N4CC5(CCN(C[C@@H]6CCN(c7ccc8c(c7)C(=O)N(C7CCC(=O)NC7=O)C8=O)C6)CC5)C4)cn3)CC2)cc1C(F)(F)F (stereo partly drawn) [Example 126, 1-(4-cyano-3-(trifluoromethyl)phenyl)-N-(5-(7-(((3S)-1-(2-(2,6-dioxopiperidin-3-yl)-1,3-dioxoisoindolin-5-yl)pyrrolidin-3-yl)methyl)-2,7-diazaspiro[3.5]nonan-2-yl)pyridin-2-yl)piperidine-4-carboxamide] | 51% | 89% | 96%
N#Cc1ccc(N2CCC(C(=O)Nc3ccc(N4CCC5(CC4)CN(CC4CCN(c6ccc7c(c6)C(=O)N(C6CCC(=O)NC6=O)C7=O)CC4)C5)cn3)CC2)cc1C(F)(F)F (stereo not drawn) [Example 127, 1-(4-cyano-3-(trifluoromethyl)phenyl)-N-(5-(2-((1-(2-(2,6-dioxopiperidin-3-yl)-1,3-dioxoisoindolin-5-yl)piperidin-4-yl)methyl)-2,7-diazaspiro[3.5]nonan-7-yl)pyridin-2-yl)piperidine-4-carboxamide] | 34% | 52% | 66%
N#Cc1ccc(N2CCC(C(=O)Nc3ccc(N4CCC5(CC4)CN(CC4CN(c6ccc7c(c6)C(=O)N(C6CCC(=O)NC6=O)C7=O)C4)C5)cn3)CC2)cc1C(F)(F)F (stereo not drawn) [Example 128, 1-(4-cyano-3-(trifluoromethyl)phenyl)-N-(5-(2-((1-(2-(2,6-dioxopiperidin-3-yl)-1,3-dioxoisoindolin-5-yl)azetidin-3-yl)methyl)-2,7-diazaspiro[3.5]nonan-7-yl)pyridin-2-yl)piperidine-4-carboxamide] | 28% | 43% | 61%
N#Cc1ccc(N2CCC(C(=O)Nc3ccc(N4CCC5(CC4)CN(C(=O)C4CCN(c6ccc7c(c6)C(=O)N(C6CCC(=O)NC6=O)C7=O)CC4)C5)cn3)CC2)cc1C(F)(F)F (stereo not drawn) [Example 129, 1-(4-cyano-3-(trifluoromethyl)phenyl)-N-(5-(2-(1-(2-(2,6-dioxopiperidin-3-yl)-1,3-dioxoisoindolin-5-yl)piperidine-4-carbonyl)-2,7-diazaspiro[3.5]nonan-7-yl)pyridin-2-yl)piperidine-4-carboxamide] | 11% | 42% | 71%
